Where no end group is shown, it is not given here. [ ]: non-standard residue; d: D form. Compound III = 6,7,9,10-tetrahydro-2-carboxymethyl-14-sulphonato-16,16,18,18-tetramethyl-7aH,8aH-bisindolinium[3,2-a,3'2'-a']pyrano[3,2-c,5,6-c']dipyridin-5-ium dye (NHS ester used for labelling); {C7NH2-CompoundIII} = C7 amino linker labelled with Compound III NHS ester; pY = N[C@@H](Cc1ccc(OP(=O)(O)O)cc1)C(=O)O
Legend:
[1] = Comparison of spectral properties of rigidized Cy3 and open chain Cy3 dyes; type: physicochemical
From the text: The spectral properties of the rigidized dye were compared with the known open chain Cy3.18.OH and Cy3.10.OH dyes (FIG. 2). The absorption maxima of the rigid dye shifted to the red by 12 nm in methanol and as expected it is 10-12 time brighter that the non-rigidized indocyanines.

[2] = target: Grb2 glutathione-S-transferase fusion protein (Homo sapiens, UniProt P62993); test: Protein:peptide polarization binding assay; settings: non-specific binding defined with 100 μM unlabelled peptide, 60 minutes
Description: A peptide of sequence E-pY-I-N-Q-S-V-P-K (E9K) was prepared by solid phase synthesis on an Applied Biosystems 431A peptide synthesizer using standard methods and materials. An excess of 6,7,9,10-tetrahydro-2-carboxymethyl-14-sulphonato-16,16,18,18-tetramethyl-7aH,8aH-bisindolinium[3,2-a;3′2′-a′]pyrano[3,2-c;5,6-c′]dipyridin-5-ium (Compound III), N-hydroxysuccinimide ester was coupled in DMSO in the presence of diisopropylethylamine to the free N-terminus of the protected peptide whilst still attached to the solid phase. After deprotection for two hours, the crude labelled peptide was purified by reverse phase HPLC, using a gradient from water/0.1%TFA to water:acetonitrile (40:60)/0.1%TFA over 60 minutes.
Various concentrations of Grb2 glutathione-S-transferase fusion protein and E9K labelled with Compound III in 20 mM MOPS pH7.4/10 mM DTT/005% Tween 20 were incubated in a final volume of 150 μl in black 96-well microplates (Dynatech) for 60 minutes. […] Polarization values were read on a Fluorolite FPM2™ plate reader (Jolley Research and Consulting Inc.) using a 530DF30 filter for excitation and 590DF45 filter for emission.

[3] = tested on: complementary probe oligonucleotide; test: Nucleic acid FRET hybridization assay; type: binding; settings: 560 nm excitation, 670 nm emission
Description: The oligonucleotides were deprotected for 17 hours at 40° C. and purified by reverse phase HPLC using a C18 column and a 40% TEAA/acetonitrile gradient. The desired peaks were collected, freeze dried and the samples were resuspended in sterile H2O.
Amino modified target and probe oligonucleotides were incubated with a 10-fold molar excess of 6,7,9,10-tetrahydro-2-carboxymethyl-14-sulphonato-16,16,18,18-tetramethyl-7aH,8aH-bisindolinium[3,2-a;3′2′-a′]pyrano[3,2-c;5,6-c′]dipyridin-5-ium (Compound III), N-hydroxysuccinimide ester and Cy5 NHS-ester dye (Amersham Pharmacia Biotech) respectively, in 0.1M sodium bicarbonate buffer (pH9), overnight at 22° C. The following morning, the oligonucleotides were ethanol precipitated and the resulting pellets were resuspended in H2O. […] Residues were resuspended into H2O and concentration of recovered material was determined.
Wells of a black, streptavidin coated 96-well plate were coated with either unlabelled or Compound III-labelled target oligonucleotides (20 pmol/well diluted in 100 μl PBS/1 MgCl2) for 120 minutes at ambient temperature. […] Finally, wells were washed vigorously with PBS and fluorescence intensity was measured on a fluorescence plate reader using a 560 nm excitation filter and a 670 nm emission filter (FIG. 7).

[4] = tested on: NF-kB-specific dsDNA; test: Protein:DNA direct intensity binding assay; settings: competitor 200 pmol/well (40 fold molar excess for p65) versus p65GST
Description: All HPLC purified oligonucleotides were obtained from Genosys Biotechnologies Ltd. Equimolar amounts of a biotinylated coding strand (5′ Biotin-[…] CCGCG 3′) and an unmodified non-coding strand (5′ […] 3′) specific for NF-kB were incubated together in a boiling water bath for 3 minutes and allowed to anneal by cooling over 2 hours.
Anti-GST antibody (3 mg/ml, 1.5 mg supplied/vial (0.5 ml) from Molecular Probes) was dialysed against 1 litre of 0.15M sodium chloride for 4 hours at room temperature and dialysis was continued overnight at 4° C. in a fresh solution of 0.15M sodium chloride. The following morning the antibody was dialysed against 1 litre of 0.1M sodium hydrogen carbonate for a maximum of 4 hours.
A 1 mg/ml solution of 6,7,9,10-tetrahydro-2-carboxymethyl-14-sulphonato-16,16,18,18-tetramethyl-7aH,8aH-bisindolinium[3,2-a;3′2′-a′]pyrano[3,2-c;5,6-c′]dipyridin-5-ium (Compound III), N-hydroxysuccinimide ester in DMSO was added gradually with stirring to the antibody at a ratio of 0.10 mg dye: 0.33 mg antibody. […]
Biotin-labelled NF-kB-specific dsDNA (2.5 pmol, diluted in 0.01 MMgCl2) was added to each well (final volume, 100 μl) of a 96-well streptavidin coated microplate (Boehringer Mannheim) and incubated at room temperature for 2 hours. […] The plate was read at Ex535/Em569 and Ex560/595 in the Biolumin 960 fluorescence microplate reader (Molecular Dynamics Inc.).

[5] = tested on: NF-kB-specific double stranded (ds) DNA; test: Protein:DNA FRET binding assay; settings: competitor 200 pmol/well (10 fold molar excess for p65), Ex520/Em670
Description: All HPLC purified NF-kB-specific oligonucleotides were obtained from Genosys Biotechnologies Ltd: a coding strand modified with a 5′ terminal primary amine (5′ NH2-[…] 3′) and an unmodified non-coding strand (5′ […] 3′). A 10-fold molar excess of Cy-5-NHS ester dye (Amersham Pharmacia Biotech) was incubated with the coding strand, in 0.1M sodium bicarbonate buffer (pH9), overnight at 22° C. The following morning the oligonucleotide was ethanol precipitated and then resuspended in water. The labelled coding strand was purified by reverse phase HPLC using a C18 column and a 60% TEAA/acetonitrile gradient. The peak containing labelled oligonucleotide was freeze dried and resuspended in water.
NF-kB-specific double stranded (ds) DNA was generated by incubating together equimolar amounts of the Cy-5 labelled coding strand (5′ Cy5-[…] […] 3′) and the unmodified non-coding strand (5′ […] […] 3′) in a boiling water bath for 3 minutes and allowing to anneal by cooling over 2 hours.
NF-kB p65 protein ([…]) was diluted to 1000 μl in 0.01M phosphate buffered saline. […]
A black microtitre plate (Dynatech) was used for the FRET assay. […] The plate was read at Ex520/Em670 in the Biolumin 960 fluorescence microplate reader (Molecular Dynamics Inc.).

Sequence of Grb2 glutathione-S-transferase fusion protein (P62993 whole entry, the tested form may be a part): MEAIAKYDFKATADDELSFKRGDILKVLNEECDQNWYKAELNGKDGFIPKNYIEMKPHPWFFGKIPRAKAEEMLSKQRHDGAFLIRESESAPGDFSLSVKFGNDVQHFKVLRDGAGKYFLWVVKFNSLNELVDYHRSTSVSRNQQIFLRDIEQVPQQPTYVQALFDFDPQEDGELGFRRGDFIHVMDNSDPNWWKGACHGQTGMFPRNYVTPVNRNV

CC1(C)C2=C3C=C4C5=[N+](CCC4OC3CCN2c2ccc(CC(=O)O)cc21)c1ccc(CC(=O)O)cc1C5(C)C (centres unmarked) [Compound I, 6,7,9,10-Tetrahydro-2,14-carboxymethyl-16,16,18,18-tetramethyl-7aH,8aH-bisindolinium[3,2-a;3′2′-a′]pyrano[3,2-c;5,6-c′]dipyridin-5-ium]
QY (Φ) ([1]; dye in methanol): 0.8 | λmax ([1]; dye in methanol): 565 | absorption maxima shifted to the red ([1]; in methanol, versus open chain Cy3 dyes): 12 nm | brightness relative to the non-rigidized indocyanines ([1]; versus non-rigidized indocyanines): 10-12 time

Compound III-labelled peptide: peptide E-pY-I-N-Q-S-V-P-K (E9K) labelled at the free N-terminus with Compound III ({Compound III}-E[pY]INQSVPK)
binding to Grb2 protein as determined by change in polarization [2]: specific binding

Compound III-labelled target oligonucleotide: 5′ C7 amino-modified TAC CCA GAC GAG CAA-biotin 3′ labelled with Compound III NHS ester (DNA TACCCAGACGAGCAA; DNA, 5' {C7NH2-CompoundIII}, 3' {Biotin}, backbone not given here)
fluorescence signal (FRET) ([3]; incubated with Cy5-labelled probe): strong fluorescence signal | fluorescence signal (FRET) ([3]; incubated with unlabelled probe): low fluorescence signals

casein
reduction of the total signal [4]: 25% | reduction of the total signal [5]: no effect

p65: NF-kB p65 protein, specific competitor
reduction of the total signal [4]: approximately 90% | reduction of the total signal [5]: 40%

Reference: patent US6686145B1, “Rigidized trimethine cyanine dyes” (Carnegie Mellon University, priority 1997, dated 2004)
